{"source": "patent US20150025012A1", "about": "“METHODS AND COMPOSITIONS FOR IDENTIFICATION, ASSESSMENT AND TREATMENT OF CANCERS ASSOCIATED WITH HEDGEHOG SIGNALING” (Infinity Pharmaceuticals, Inc., priority 2010, published 2015)", "key": {"human SHh expression": {"test_system": "human SHh expression", "experiment": "Hedgehog ligand expression in bladder cancer cells after chemotherapy", "format": "cell-based", "settings": "24, 48, 72 hours, highest after 144 hours"}, "hedgehog pathway": {"test_system": "hedgehog pathway", "experiment": "C3H10T1/2 alkaline phosphatase assay (Shh-dependent osteoblast differentiation)", "format": "cell-based", "settings": "Mus musculus, C3H 10T1/2; HCl salt; sonic hedgehog 250 ng/ml; AP activity normalized against total protein; read-out: IC50 (antagonist of the hedgehog pathway)", "from_the_text": "An exemplary assay to evaluate the activity of a hedgehog inhibitor is as follows. C3H10T1/2 cells differentiate into osteoblasts when contacted with the sonic hedgehog peptide (Shh-N). Upon differentiation, these osteoblasts produce high levels of alkaline phosphatase (AP) which can be measured in an enzymatic assay (Nakamura et al., 1997 BBRC 237: 465). Compounds that block the differentiation of C3H10T1/2 into osteoblasts (a Shh dependent event) can therefore be identified by a reduction in AP production (van der Horst et al., 2003 Bone 33: 899). The assay details are described below. Additional assays to ascertained the activity of hedgehog inhibitors, including IPI-926, are described in US 2009/0181997 by Grayzel et al., U.S. Ser. No. 61/327,373 and 61/331,365, filed on Apr. 23, 2010 and May 4, 2010, respectively; the entire contents of the aforesaid applications are incorporated herein by reference. […]\nC3H10T1/2 cells were plated in 96 wells with a density of 8×10^3 cells/well. […] After incubating for 30 min at 37° C., the plates were read on an Envision plate reader at 405 nm. Total protein was quantified with a BCA protein assay kit from Pierce according to manufacturer's instructions. […]"}, "Bx-PC3 tumors": {"test_system": "Bx-PC3 tumors", "experiment": "Growth of Bx-PC3 tumors in mice", "format": "in vivo", "settings": "single agents and combination", "from_the_text": "Bevacizumab, a monoclonal antibody, exerts its activity by neutralizing VEGF, a factor important of the proliferation and survival of endothelial cells. […] In the same study, the relative effect of these agents was explored by measuring the mRNA expression of PECAM-1, a marker of endothelial cells and RGS5, a marker of pericytes. […] The role of the vasculature and its supporting pericyte population in the mechanism of action of IPI-926 continues to be explored.\nFor in vivo studies, tumors were grown in male NCR-nu/nu mice by subcutaneous injection of 5×10^6 cells. Tumor growth was monitored using calipers. When tumors reached an approximate size of 200 mm^3, tumor bearing animals were randomized into treatment arms and administered agents or vehicles as described."}}, "note": "Structures can show the parent of a compound that is named as a salt.", "data": [{"compound": "COc1cccc2c1C(=O)c1c(O)c3c(c(O)c1C2=O)C[C@@](O)(C(=O)CO)C[C@@H]3O[C@H]1C[C@H](N)[C@H](O)[C@H](C)O1", "note": "[doxorubicin]", "values": [{"measurement": "human SHh expression", "setting": "human SHh expression", "result": "increase"}]}, {"compound": "CC1=C2C[C@H]3[C@@H](CC[C@@H]4C[C@H](NS(C)(=O)=O)CC[C@@]43C)[C@@H]2CC[C@@]2(C1)O[C@@H]1C[C@H](C)CN[C@H]1[C@H]2C", "note": "[IPI-926 (HCl salt)]", "values": [{"measurement": "IC50", "setting": "hedgehog pathway", "result": "< 20", "unit": "nM"}]}, {"compound": "Nc1ccn([C@@H]2O[C@H](CO)[C@@H](O)C2(F)F)c(=O)n1", "note": "[gemcitabine]", "values": [{"measurement": "human SHh expression", "setting": "human SHh expression", "result": "increase"}]}, {"compound": "Bevacizumab: a monoclonal antibody, exerts its activity by neutralizing VEGF", "values": [{"measurement": "activity on the growth of Bx-PC3 tumors", "setting": "Bx-PC3 tumors", "result": "approximately the same single agent activity"}]}]}
